Values quoted from earlier work in patent US20040167132A1, “Methods of treating conditions associted with an Edg-2 receptor” (priority 2003, published 2004).
Counter-ions that a name gives are not always drawn. One block for each compound: values may come before it.

How the values were obtained:
[1] = target: Adrenergic β; conditions: radioligand; Wistar rat brain; historical value
[2] = target: Adrenergic α1 non-selective
[3] = target: Serotonin 5-HT1, non-selective; conditions: radioligand; Wistar rat cerebral cortex; historical value
[4] = target: T1, Angiotensin AT2 (Homo sapiens, UniProt P50052); conditions: radioligand; Human recombinant Hela cells; historical value
T1 construct: expressed in transfected cells; host or cells: HeLa cells
T1 sequence (P50052 1-363): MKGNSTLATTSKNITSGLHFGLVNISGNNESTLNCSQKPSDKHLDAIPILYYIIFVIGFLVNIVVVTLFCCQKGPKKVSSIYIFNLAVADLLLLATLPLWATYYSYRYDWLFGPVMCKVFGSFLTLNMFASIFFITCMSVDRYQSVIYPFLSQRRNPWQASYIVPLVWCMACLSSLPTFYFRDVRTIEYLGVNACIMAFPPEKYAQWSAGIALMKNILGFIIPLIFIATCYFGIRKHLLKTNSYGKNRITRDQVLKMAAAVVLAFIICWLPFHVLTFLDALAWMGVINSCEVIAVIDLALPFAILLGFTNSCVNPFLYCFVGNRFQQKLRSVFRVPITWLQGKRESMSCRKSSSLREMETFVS

- Kd [1]: 0.5 nM
Compound: CCCc1ccccc1OCC(O)CNC(C)C (stereo not shown) [^3H Dihydroaplenolol, Dihydroaplenolol]

Compound: COc1cc2nc(N3CCN(C(=O)c4ccco4)CC3)nc(N)c2cc1OC [^3H Prazosin, Prazosin]
- Kd [2]: 0.29 nM

Compound: NCCc1c[nH]c2ccc(O)cc12 [^3H Serotonin (5-HT) Trifluoroacetate, Serotonin (5-HT) Trifluoroacetate]
- Kd [3]: 0.61 nM

- Kd [4]: 0.012 nM
Compound: CGP-42112A [^125I CGP-42112A]
